Experimental data from PubChem BioAssay AID2060600 (Molecular Pharmacology Branch, DTP, NCI, 2025).

Test system: 996289-038-R-J1-PDC complex spheroid viability
Assay: Anticancer human tumor 996289-038-R-J1-PDC patient-derived colon adenocarcinoma cell line growth inhibition [CLK]
Details: for IC50: curve of first compound; for viability, T/C: stronger effect = lower value; active means viability on the fitted dose curve at most 10% of control; inactive means the rest
Outline: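 Multi-cell-type spheroids combined patient-derived tumor cells with HUVEC endothelial cells and human mesenchymal stem cells. Paired agents were dosed in half-log steps down from about clinical Cmax, or from 10 microM where Cmax was unknown.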

[1] = second compound 0.0316 µM, first compound 0.0316 µM
[2] = second compound 0.0316 µM, first compound 0.1 µM
[3] = second compound 0.0316 µM, first compound 0.316 µM
[4] = second compound 0.0316 µM, first compound 1 µM
[5] = second compound 0.0316 µM, first compound 3.16 µM
[6] = second compound 0.0316 µM, first compound 10 µM
[7] = second compound 0.1 µM, first compound 0.0316 µM
[8] = second compound 0.1 µM, first compound 0.1 µM
[9] = second compound 0.1 µM, first compound 0.316 µM
[10] = second compound 0.1 µM, first compound 1 µM
[11] = second compound 0.1 µM, first compound 3.16 µM
[12] = second compound 0.1 µM, first compound 10 µM
[13] = second compound 0.316 µM, first compound 0.0316 µM
[14] = second compound 0.316 µM, first compound 0.1 µM
[15] = second compound 0.316 µM, first compound 0.316 µM
[16] = second compound 0.316 µM, first compound 1 µM
[17] = second compound 0.316 µM, first compound 3.16 µM
[18] = second compound 0.316 µM, first compound 10 µM
[19] = second compound 1 µM, first compound 0.0316 µM
[20] = second compound 1 µM, first compound 0.1 µM
[21] = second compound 1 µM, first compound 0.316 µM
[22] = second compound 1 µM, first compound 1 µM
[23] = second compound 1 µM, first compound 3.16 µM
[24] = second compound 1 µM, first compound 10 µM
[25] = second compound 3.16 µM, first compound 0.0316 µM
[26] = second compound 3.16 µM, first compound 0.1 µM
[27] = second compound 3.16 µM, first compound 0.316 µM
[28] = second compound 3.16 µM, first compound 1 µM
[29] = second compound 3.16 µM, first compound 3.16 µM
[30] = second compound 3.16 µM, first compound 10 µM
[31] = second compound 10 µM, first compound 0.0316 µM
[32] = second compound 10 µM, first compound 0.1 µM
[33] = second compound 10 µM, first compound 0.316 µM
[34] = second compound 10 µM, first compound 1 µM
[35] = second compound 10 µM, first compound 3.16 µM
[36] = second compound 10 µM, first compound 10 µM
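Further: spheroids exposed to the agents for 7 days before readout.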

CC(=O)O[C@H]1C(=O)[C@@]2(C)[C@H]([C@H](OC(=O)c3ccccc3)[C@]3(O)C[C@H](OC(=O)[C@H](O)[C@@H](NC(=O)c4ccccc4)c4ccccc4)C(C)=C1C3(C)C)[C@]1(OC(C)=O)CO[C@@H]1C[C@@H]2O + CN1CCN(c2cc(C(=O)Nc3cc4cc(-c5cnn(C)c5)ccc4cn3)ccn2)CC1
> 10000 nM: IC50 (second compound 0.0316 µM)
active: viability, T/C [19] 2.95% | viability, T/C [20] 3.46% | viability, T/C [21] 2.81% | viability, T/C [22] 5.29% | viability, T/C [23] 3.96% | viability, T/C [24] 3.89% | viability, T/C [25] 2.65% | viability, T/C [26] 0.84% | viability, T/C [27] 1.67% | viability, T/C [28] 2.13% | viability, T/C [29] 1.35% | viability, T/C [30] 0.72% | viability, T/C [31] 1.84% | viability, T/C [32] 1.49% | viability, T/C [33] 0.61% | viability, T/C [34] 0.57% | viability, T/C [35] 0.83% | viability, T/C [36] 2.14%
inactive: viability, T/C [1] 94% | viability, T/C [2] 80.4% | viability, T/C [3] 64.1% | viability, T/C [4] 57.5% | viability, T/C [5] 54.8% | viability, T/C [6] 54.5% | viability, T/C [7] 83.2% | viability, T/C [8] 77.6% | viability, T/C [9] 58.6% | viability, T/C [10] 50% | viability, T/C [11] 48.1% | viability, T/C [12] 48.2% | viability, T/C [13] 52.1% | viability, T/C [14] 49.1% | viability, T/C [15] 39.1% | viability, T/C [16] 34.2% | viability, T/C [17] 36.9% | viability, T/C [18] 38.3%
50.7 nM: IC50 (second compound 0.316 µM)
947 nM: IC50 (second compound 0.1 µM)
< 31.6 nM: IC50 (second compound 1 µM) | IC50 (second compound 3.16 µM) | IC50 (second compound 10 µM)

CCc1c2c(nc3ccc(O)cc13)-c1cc3c(c(=O)n1C2)COC(=O)[C@]3(O)CC + CN1CCN(c2cc(C(=O)Nc3cc4cc(-c5cnn(C)c5)ccc4cn3)ccn2)CC1
< 3.16 nM: IC50 (second compound 1 µM) | IC50 (second compound 3.16 µM) | IC50 (second compound 10 µM)
active: viability, T/C [16] 6.98% | viability, T/C (second compound 1 µM, first compound 0.00316 µM) 6.14% | viability, T/C (second compound 1 µM, first compound 0.01 µM) 5.27% | viability, T/C [19] 2.85% | viability, T/C [20] 1.7% | viability, T/C [21] 3.66% | viability, T/C [22] 5.38% | viability, T/C (second compound 3.16 µM, first compound 0.00316 µM) 1.13% | viability, T/C (second compound 3.16 µM, first compound 0.01 µM) 0.73% | viability, T/C [25] 1.24% | viability, T/C [26] 1.43% | viability, T/C [27] 3.98% | viability, T/C [28] 8.54% | viability, T/C (second compound 10 µM, first compound 0.00316 µM) 1.3% | viability, T/C (second compound 10 µM, first compound 0.01 µM) 2.51% | viability, T/C [31] 0.56% | viability, T/C [32] 0.63% | viability, T/C [33] 0.8% | viability, T/C [34] 3.96%
inactive: viability, T/C (second compound 0.0316 µM, first compound 0.00316 µM) 89.7% | viability, T/C (second compound 0.0316 µM, first compound 0.01 µM) 79.2% | viability, T/C [1] 57.2% | viability, T/C [2] 56.6% | viability, T/C [3] 43% | viability, T/C [4] 26.9% | viability, T/C (second compound 0.1 µM, first compound 0.00316 µM) 91% | viability, T/C (second compound 0.1 µM, first compound 0.01 µM) 70.7% | viability, T/C [7] 55.6% | viability, T/C [8] 44.8% | viability, T/C [9] 33.8% | viability, T/C [10] 19.5% | viability, T/C (second compound 0.316 µM, first compound 0.00316 µM) 57.9% | viability, T/C (second compound 0.316 µM, first compound 0.01 µM) 51.2% | viability, T/C [13] 46.2% | viability, T/C [14] 35% | viability, T/C [15] 17.7%
16.6 nM: IC50 (second compound 0.316 µM)
126 nM: IC50 (second compound 0.0316 µM)
58.6 nM: IC50 (second compound 0.1 µM)

COc1ccc([C@@H](O)c2cc(-c3ncnc4cc(N5CCOCC5)ccc34)c(F)cc2Cl)nn1 + CN1CCN(c2cc(C(=O)Nc3cc4cc(-c5cnn(C)c5)ccc4cn3)ccn2)CC1
3190 nM: IC50 (second compound 0.316 µM)
< 31.6 nM: IC50 (second compound 1 µM) | IC50 (second compound 3.16 µM) | IC50 (second compound 10 µM)
> 10000 nM: IC50 (second compound 0.0316 µM)
inactive: viability, T/C [1] 93.2% | viability, T/C [2] 94.8% | viability, T/C [3] 91.7% | viability, T/C [4] 85.7% | viability, T/C [5] 76.6% | viability, T/C [6] 50.2% | viability, T/C [7] 85.3% | viability, T/C [8] 95.1% | viability, T/C [9] 87.8% | viability, T/C [10] 79.8% | viability, T/C [11] 67.7% | viability, T/C [12] 40.8% | viability, T/C [13] 61.1% | viability, T/C [14] 64.8% | viability, T/C [15] 61.9% | viability, T/C [16] 59.8% | viability, T/C [17] 49.8% | viability, T/C [18] 27.1%
6690 nM: IC50 (second compound 0.1 µM)
active: viability, T/C [19] 3.25% | viability, T/C [20] 3.83% | viability, T/C [21] 3.78% | viability, T/C [22] 4.19% | viability, T/C [23] 3.66% | viability, T/C [24] 3.61% | viability, T/C [25] 1.19% | viability, T/C [26] 0.85% | viability, T/C [27] 1.09% | viability, T/C [28] 1.26% | viability, T/C [29] 2.9% | viability, T/C [30] 2.02% | viability, T/C [31] 0.92% | viability, T/C [32] 0.41% | viability, T/C [33] 1.74% | viability, T/C [34] 0.52% | viability, T/C [35] 0.52% | viability, T/C [36] 0.65%

COc1cccc2c1C(=O)c1c(O)c3c(c(O)c1C2=O)CC(O)(C(=O)CO)CC3OC1CC(N)C(O)C(C)O1 (stereo not given) + CN1CCN(c2cc(C(=O)Nc3cc4cc(-c5cnn(C)c5)ccc4cn3)ccn2)CC1
775 nM: IC50 (second compound 0.1 µM)
inactive: viability, T/C [1] 89.6% | viability, T/C [2] 91.8% | viability, T/C [3] 71.9% | viability, T/C [4] 52.5% | viability, T/C [5] 45.2% | viability, T/C [6] 33.8% | viability, T/C [7] 89.3% | viability, T/C [8] 83.5% | viability, T/C [9] 60.2% | viability, T/C [10] 44.5% | viability, T/C [11] 40.6% | viability, T/C [12] 26.3% | viability, T/C [13] 67.8% | viability, T/C [14] 56.9% | viability, T/C [15] 42.1% | viability, T/C [16] 38.6% | viability, T/C [17] 33.6% | viability, T/C [18] 16.1%
< 31.6 nM: IC50 (second compound 1 µM) | IC50 (second compound 3.16 µM) | IC50 (second compound 10 µM)
218 nM: IC50 (second compound 0.316 µM)
1400 nM: IC50 (second compound 0.0316 µM)
active: viability, T/C [19] 4.05% | viability, T/C [20] 4.33% | viability, T/C [21] 4.01% | viability, T/C [22] 3.89% | viability, T/C [23] 4.94% | viability, T/C [24] 7.17% | viability, T/C [25] 0.81% | viability, T/C [26] 1.53% | viability, T/C [27] 2.41% | viability, T/C [28] 2.9% | viability, T/C [29] 5.23% | viability, T/C [30] 5.47% | viability, T/C [31] 1.39% | viability, T/C [32] 0.35% | viability, T/C [33] 0.5% | viability, T/C [34] 0.45% | viability, T/C [35] 0.53% | viability, T/C [36] 0.61%

O=c1[nH]cc(F)c(=O)[nH]1 + CN1CCN(c2cc(C(=O)Nc3cc4cc(-c5cnn(C)c5)ccc4cn3)ccn2)CC1
< 31.6 nM: IC50 (second compound 1 µM) | IC50 (second compound 3.16 µM) | IC50 (second compound 10 µM)
> 10000 nM: IC50 (second compound 0.0316 µM) | IC50 (second compound 0.1 µM)
active: viability, T/C [19] 4.52% | viability, T/C [20] 5.71% | viability, T/C [21] 5.87% | viability, T/C [22] 6.18% | viability, T/C [23] 6.47% | viability, T/C [24] 7.26% | viability, T/C [25] 1.22% | viability, T/C [26] 0.94% | viability, T/C [27] 0.86% | viability, T/C [28] 1.6% | viability, T/C [29] 0.83% | viability, T/C [30] 0.72% | viability, T/C [31] 0.56% | viability, T/C [32] 0.79% | viability, T/C [33] 0.98% | viability, T/C [34] 1.55% | viability, T/C [35] 0.45% | viability, T/C [36] 0.41%
inactive: viability, T/C [1] 100% | viability, T/C [2] 91.3% | viability, T/C [3] 76.4% | viability, T/C [4] 74.4% | viability, T/C [5] 74.2% | viability, T/C [6] 71% | viability, T/C [7] 101% | viability, T/C [8] 94.4% | viability, T/C [9] 74.2% | viability, T/C [10] 65.5% | viability, T/C [11] 60.8% | viability, T/C [12] 58.4% | viability, T/C [13] 77.1% | viability, T/C [14] 68.1% | viability, T/C [15] 56.8% | viability, T/C [16] 56.7% | viability, T/C [17] 51.7% | viability, T/C [18] 47.3%
4880 nM: IC50 (second compound 0.316 µM)
